Here are results for 10 compounds from patent publication US12377175B2, “Trifunctional constructs with tunable pharmacokinetics useful in imaging and anti-tumor therapies” (Cornell University, priority 2016, dated 2025).

A value given as a limit tells only on which side of the number the result lay.

By Kd is commonly meant the concentration at which binding is half-saturated.

Data set [1] relates to LNCaP xenograft tumors. Nature of the data set: Therapy study in LNCaP xenograft mice. It counts as in vivo, mouse. The conditions noted are these: for tumors not detectable (<0.5 mm^3): 75 d post injection. How it is done:
(§1) Inoculation of mice with xenografts. All animal studies were approved by the Institutional Animal Care and Use Committee of Weill Cornell Medicine and were undertaken in accordance with the guidelines set forth by the USPHS Policy on Humane Care and Use of Laboratory Animals. Animals were housed under standard conditions in approved facilities with 12 h light/dark cycles. Food and water was provided ad libitum throughout the course of the studies. Male BALB/c athymic nu/nu mice were purchased from the Jackson Laboratory. For inoculation in mice, LNCaP cells were suspended at 4×10^7 cells/mL in a 1:1 mixture of PBS:Matrigel (BD Biosciences). Each mouse was injected in the left flank with 0.25 mL of the cell suspension. Biodistributions were conducted when tumors were in the range 200-800 mm^3, while therapy studies were initiated when tumors were in the range 50-900 mm^3.
Therapy study in LNCaP xenograft mice. LNCaP xenograft tumor-bearing mice were randomly assigned to 5 groups (7 mice per group). […] The fourth group was injected with the same volume of vehicle. The fifth group was injected with 133 kBq ^225Ac-DOTA-Lys-IPBA. Tumor dimensions were measured and recorded three times weekly with digital calipers, and tumor volumes were calculated using the modified ellipsoid equation, V=0.5*length*width*width. […] Body weight was measured with a digital balance twice weekly, and mice were monitored for signs of distress. The mice were photographed weekly to visually confirm changes in tumor volume.

Data set [2] is described as follows: Biodistribution / in vivo stability of [225Ac(macropa)]+ compared with 225Ac(NO3)3 and [225Ac(DOTA)]- in C57BL/6 mice. The conditions noted are these: for accumulation of 225Ac in organs / blood clearance and excretion: tail vein, 15 min, 1 h, 5 h. How it is done:
C57BL/6 mice were injected via tail vein with 10-50 kBq of each radiometal complex and were sacrificed after 15 min, 1 h, or 5 h.

The test system of data set [3] is LNCaP xenograft tumor-bearing mice. Nature of the data set: Biodistribution studies of 177Lu-labeled ligands in LNCaP xenograft mice. It counts as in vivo, mouse. How it is done:
as §1, with “xenografts:” for “xenografts.”, “Hairless male” for “Male BALB/c athymic”, “The mice were imaged when the tumors reached approximately 200-400 mm^3, while biodistributions” for “Biodistributions”, “100-400” for “200-800 mm^3, while therapy studies were initiated when tumors were in the range 50-900”
Biodistribution studies of 177Lu-labeled ligands in LNCaP xenograft mice: LNCaP xenograft tumor-bearing mice (5 per time point per compound) were injected intravenously with a bolus injection of 348-851 kBq (9.4-23 μCi) and 37-50 ng ([…]) of each ligand. The mice were sacrificed at 4, 24 and 96 h post injection. A blood sample was removed, and a full biodistribution study was conducted on the following organs (with contents): heart, lungs, liver, small intestine, large intestine, stomach, spleen, pancreas, kidneys, muscle, bone and tumor. Tissues were weighed and counted on a 2470 Wizard^2 Automatic Gamma Counter (Perkin Elmer). Counts were corrected for decay and for activity injected, and tissue uptake was expressed as percent injected dose per gram (% ID/g). Standard error measurement was calculated for each data point.

Data set [4] shares this test system. Nature of the data set: Dosimetry (dose integrals from time-activity curves of 177Lu-labeled ligands). The conditions noted are these: over 96 h. Format: in vivo, mouse. How it is done: Dosimetry: The dosimetry was calculated assuming a linear interpolation between the three time points. The average injected dose per organ was calculated by using the average of the activity and organ weights of the mice at that time point. Intermediate time points at every 4 hours were generated using the linear approximation and all time points were corrected for decay during the time interval between points. These curves were integrated using a trapezoidal approximation and the sum used to determine the residence time.

For data set [5], the target named is T1, PSMA on LNCaP cells (Homo sapiens, UniProt Q04609).
T1 construct: host or cells: LNCaP
T1 sequence (Q04609 whole entry): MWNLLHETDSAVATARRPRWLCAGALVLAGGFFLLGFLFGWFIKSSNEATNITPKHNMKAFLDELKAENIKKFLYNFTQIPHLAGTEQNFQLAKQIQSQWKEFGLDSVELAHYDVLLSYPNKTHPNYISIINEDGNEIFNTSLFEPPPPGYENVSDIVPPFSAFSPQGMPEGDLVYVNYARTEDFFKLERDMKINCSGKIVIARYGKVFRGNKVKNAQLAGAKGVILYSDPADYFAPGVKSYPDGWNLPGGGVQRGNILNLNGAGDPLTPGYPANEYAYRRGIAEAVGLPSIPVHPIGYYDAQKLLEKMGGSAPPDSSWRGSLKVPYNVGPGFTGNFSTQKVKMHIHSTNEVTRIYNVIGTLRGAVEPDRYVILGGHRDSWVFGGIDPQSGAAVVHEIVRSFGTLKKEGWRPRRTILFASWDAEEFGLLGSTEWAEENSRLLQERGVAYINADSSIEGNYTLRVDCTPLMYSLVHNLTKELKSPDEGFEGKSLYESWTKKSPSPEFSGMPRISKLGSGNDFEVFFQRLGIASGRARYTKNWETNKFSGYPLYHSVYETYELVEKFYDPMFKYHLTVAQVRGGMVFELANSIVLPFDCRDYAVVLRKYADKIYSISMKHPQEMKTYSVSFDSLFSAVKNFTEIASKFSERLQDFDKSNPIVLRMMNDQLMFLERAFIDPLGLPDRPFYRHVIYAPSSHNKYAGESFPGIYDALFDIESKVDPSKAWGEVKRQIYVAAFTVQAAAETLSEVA
Particulars: cited from earlier work.

Turning to `O=C(O)CC[C@H](NC(=O)N[C@@H](CCCCNC(=O)Nc1cccc(-c2cn(CCOCCOCCOCCC(=O)N[C@@H](CCCCNC(=S)Nc3cc(CN4CCOCCOCCN(Cc5cccc(C(=O)[O-])n5)CCOCCOCC4)nc(C(=O)[O-])c3)C(=O)NCCOCCOCCOCCOCCOCCOCCOCCOCCC(=O)N[C@@H](CCCCNC(=O)CCCc3ccc(I)cc3)C(=O)O)nn2)c1)C(=O)O)C(=O)O.[225Ac+3]` [225Ac-RPS-074], the “mice surviving the first 21 d” value in data set [1] (37 kBq group) came to 100%. For the same compound, the tumor growth rate entry in data set [1] (37 kBq treatment group) is “appeared to grow at a similar rate to the untreated tumors”. Moreover, the “tumors not detectable (<0.5 mm^3)” value is 14% in data set [1] (74 kBq group, 1/7) and 86% in data set [1] (138 kBq treatment group, 6/7). Moreover, the “tumor volumes that began to increase again” value in data set [1] (74 kBq group, after 42 d, 6/7) was 86%. Further, in data set [1] (74 kBq group, post injection), the “time over which tumor volume decreased” value is at most 42 days. For the same compound, the “mice with tumor volume less than 1 mm^3” value in data set [1] (74 kBq group, up to 42 days p.i., 5/7) is listed as 71%. In data set [1] (138 kBq and 74 kBq), the antitumor effect entry is “significant antitumor effect”. Moreover, the “survival of the 75 d study” value in data set [1] (138 kBq treatment group) is given as “Every mouse in the 138 kBq treatment group survived”.
For `O=C([O-])c1cccc(CN2CCOCCOCCN(Cc3cccc(C(=O)[O-])n3)CCOCCOCC2)n1.[225Ac+3]` [[225Ac(macropa)]+], in data set [2], the “in vivo stability of the complex” value is on record as “highly stable in vivo”; the “accumulation of 225Ac in organs” value was “did not accumulate in any organ”; the “blood clearance and excretion” value is reported as “rapidly cleared from mice”.
As for `O=C([O-])CN1CCN(CC(=O)[O-])CCN(CC(=O)O)C(Cc2ccc(NC(=S)NCCCC[C@H](NC(=O)CCOCCOCCOCCOCCOCCOCCOCCOCCn3cc(-c4cccc(NC(=O)NCCCC[C@H](NC(=O)N[C@@H](CCC(=O)O)C(=O)O)C(=O)O)c4)nn3)C(=O)N[C@@H](CCCCNC(=O)Cc3ccc(I)cc3)C(=O)O)cc2)CN(CC(=O)[O-])CC1.[177Lu+3]` (stereo partly drawn) [177Lu-RPS-066], in data set [3] (4 h p.i.), the “blood activity (comparison within the series)” value (from here on “blood activity”) is given as “lower blood retention” and the tumor uptake is reported as 18.7±1.1 % ID/g. In addition, in data set [3] (24 h p.i.), the kidney uptake came to 6.2±0.8 % ID/g and the tumor-to-kidney ratio is 1.92±0.30. The tumor uptake in data set [3] (96 h p.i.) is 5.9±0.7 % ID/g. For the same compound, the “dose integral in the tumor relative to 177Lu-PSMA-617” value in data set [4] is on record as “at least two times higher”.
`O=C([O-])CN1CCN(CC(=O)[O-])CCN(CC(=O)[O-])CCN(CC(=O)[O-])CC1.[225Ac+3]` [[225Ac(DOTA)]-, reference compound]: the “blood clearance and excretion” value in data set [2] is “clear more rapidly through the urine”.
Take `O=C([O-])CN1CCN(CC(=O)[O-])CCN(CC(=O)O)C(Cc2ccc(NC(=S)NCCCC[C@H](NC(=O)CCOCCOCCOCCn3cc(-c4cccc(NC(=O)NCCCC[C@H](NC(=O)N[C@@H](CCC(=O)O)C(=O)O)C(=O)O)c4)nn3)C(=O)N[C@@H](CCCCNC(=O)Cc3ccc(I)cc3)C(=O)O)cc2)CN(CC(=O)[O-])CC1.[177Lu+3]` (stereo partly drawn) [177Lu-RPS-063]: in data set [3] (4 h p.i.), the “blood activity” value was “highest blood activity” and the tumor uptake was 30.0±3.1 % ID/g. For the same compound, the kidney uptake in data set [3] (24 h p.i.) worked out at 51.8±8.6 % ID/g. In addition, in data set [3] (96 h p.i.), the tumor uptake is reported as 12.9±0.5 % ID/g and the tumor-to-kidney ratio is 2.75±0.17. For the same compound, the “dose integral in the tumor relative to 177Lu-PSMA-617” value in data set [4] was “nearly four times higher”.
As to `O=C([O-])CN1CCN(CC(=O)[O-])CCN(CC(=O)O)C(Cc2ccc(NC(=S)N[C@@H](CCCCNC(=O)CCCc3ccc(I)cc3)C(=O)O)cc2)CN(CC(=O)[O-])CC1.[225Ac+3]` (stereo partly drawn) [225Ac-DOTA-Lys-IPBA], the “mice surviving the first 21 d” value in data set [1] (133 kBq positive control group) amounted to 100%.
Consider `O=C(O)CC[C@H](NC(=O)N[C@@H](CCC(=O)N[C@@H](CCCCN(Cc1nccn1CC(=O)O)Cc1nccn1CC(=O)O)C(=O)O)C(=O)O)C(=O)O.[C-]#[O+].[C-]#[O+].[C-]#[O+].[Tc+]` [99mTc-MIP-1427, ^99mTc-((7S,12S,16S)-1-(1-(carboxymethyl)-1H-imidazol-2-yl)-2-((1-(carboxymethyl)-1H-imidazol-2-yl)methyl)-9,14-dioxo-2,8,13,15-tetraazaoctadecane-7,12,16,18-tetracarboxylic acid technetiumtricarbonylcomplex)], for which, in data set [5], the Kd was 0.64 ± 0.46 nM.
With `O=C([O-])CN1CCN(CC(=O)[O-])CCN(CC(=O)O)C(Cc2ccc(NC(=S)NCCCC[C@H](NC(=O)CCOCCOCCOCCOCCOCCOCCn3cc(-c4cccc(NC(=O)NCCCC[C@H](NC(=O)N[C@@H](CCC(=O)O)C(=O)O)C(=O)O)c4)nn3)C(=O)N[C@@H](CCCCNC(=O)Cc3ccc(I)cc3)C(=O)O)cc2)CN(CC(=O)[O-])CC1.[177Lu+3]` (stereo partly drawn) [177Lu-RPS-069], the “blood activity” value in data set [3] (4 h p.i.) is reported as “lower blood retention”. Besides, the results for the tumor uptake in data set [3] (4 h p.i.) and in data set [3] (96 h p.i.) were 17.0±2.1 % ID/g and 9.8±0.8 % ID/g, respectively. The “dose integral in the tumor relative to 177Lu-PSMA-617” value in data set [4] is on record as “at least two times higher”.
Consider `O=C([O-])CN1CCN(CC(=O)[O-])CCN(CC(=O)O)C(Cc2ccc(NC(=S)NCCCC[C@H](NC(=O)CCOCCOCCOCCOCCn3cc(-c4cccc(NC(=O)NCCCC[C@H](NC(=O)N[C@@H](CCC(=O)O)C(=O)O)C(=O)O)c4)nn3)C(=O)N[C@@H](CCCCNC(=O)Cc3ccc(I)cc3)C(=O)O)cc2)CN(CC(=O)[O-])CC1.[177Lu+3]` (stereo partly drawn) [177Lu-RPS-061], for which the “blood activity” value in data set [3] (4 h p.i.) is listed as “highest blood activity”. For the same compound, the tumor-to-kidney ratio in data set [3] (96 h p.i.) is given as 3.64±0.29. For the same compound, in data set [4], the “dose integral in the tumor relative to 177Lu-PSMA-617” value is recorded as “at least two times higher”.
With `O=[N+]([O-])[O-].O=[N+]([O-])[O-].O=[N+]([O-])[O-].[225Ac]` [225Ac(NO3)3, reference compound], in data set [2], the “accumulation of 225Ac in organs” value is “large accumulation in the liver and spleen”; the “blood clearance and excretion” value is “slow blood clearance and excretion”.
